The results in this text go back to patent EP0751768B1, “ANTI-VIRAL AND ANTI-CANCER AGENT” (Radopath Pharmaceuticals International Limited, priority 1994, dated 1995).

As usually defined, the IC50 is the point on the concentration scale where inhibition reaches its midpoint. What is called CC50 is the concentration at which the toxic effect on the cells reaches its halfway point.

Molecules are shown by their SMILES. Where “and” joins values, the source holds several entries; their conditions need not be identical. Equal entries are not always repeated.

Data set [1] concerns MAC15A (murine adenocarcinoma colon). The format is in vivo, NMR1 mice. To be noted: mouse, in vivo, ip.
The subject of data set [2] is M5076-reticulum cell sarcoma. In words: Anti-tumour activity against M5076 solid tumour (tumour weight inhibition). It is filed as in vivo, murine. The settings on record: for % Tumour Weight Inhibition: 16 days after im transplant, corn oil. The procedure:
(§1) The in vivo anti-tumour responses of the compound according to the invention were assessed against the ascitic tumours, MAC15A murine colon adenocarcinoma and various solid tumour models. The MAC15A ascites tumour cells were transplanted into male NMR1 mice by ip innoculation at a cell density of 1 x 10^5 cells in 200µl buffer (Table I). The solid tumour models included the MAC13 and MAC16 murine colon adenocarcinomas, the B16 F1 murine melanoma and the M5076 reticulum cell sarcoma.
(§2) Treatment commenced 3 days after ip transplant or, in the case of solid tumours such as MAC13 and MAC16, treatment commenced when average tumour volumes reached 40mm^3.
(§3) The animals were located in both cases into groups of 5 to 8 animals.
(§4) The animals were sacrificed after 12 days or when tumours ulcerated, tumour volume exceeded 1000mm^3 or loss of body weight exceeded 50%.
(§5) Except where otherwise stated, the compound used was dissolved in DMSO and diluted in sterile distilled water, at appropriate concentrations before administration in a solvent volume of 200µl. Anti-tumour responses were obtained by comparing the median survival times or tumour growth inhibition against solvent controls.
(§6) % Tumour Weight Inhibition:-

Data set [3] relates to B16F1-murine melanoma. It is filed as in vivo. To be noted: mouse, in vivo.
Data set [4] deals with MAC13 murine colon adenocarcinoma. In words: Anti-tumour activity against MAC13 (tumour weight inhibition). The format is in vivo. The settings on record: 12 days after im transplant, corn oil. The procedure: as §1, §2, §3, §4, §5, §6
The subject of data set [5] is MAC16, murine colon adenocarcinoma. In words: Anti-tumour activity against MAC16 (tumour weight inhibition). It is filed as in vivo. To be noted: for % Tumour Weight Inhibition: sc transplanted, day 11 after the beginning of treatment, tumour volumes at least 40mm^3 at start, corn oil. The procedure:
as §1, §2, §3, §4, §5, §6

Data set [6] concerns HIV-1RF. Nature of the data set: microbe, parasite or virus in culture. It is filed as cell-based, human immunodeficiency virus HIV-1RF.
Data set [7] concerns HIV-I IIIB. Nature of the data set: Acute infection assay, HIV core antigen ELISA (HIV-I IIIB). The format is cell-based. For orientation: ELISA stands for enzyme-linked immunosorbent assay.
Data set [8] deals with Chronically infected cells (H9rf). In words: Chronically infected cell assay, HIV-1 antigen ELISA. It is filed as cell-based. To be noted: Against Chronically infected cells.
Data set [9] has as its system uninfected H9 cells. Nature of the data set: Toxicity in uninfected H9 cells, 14C protein hydrolysate incorporation, four days. It is filed as cell-based. The settings on record: listed under Against Chronically infected cells; average of the lines above. Here is the method:
• (i) Acute Infection Assay. High titre virus stocks of the human immunodeficiency virus HIV-1RF were grown in H9 cells with RM1 1640 (Flow laboratories) supplemented with 10% fetal calf serum, penicillin (100IU/ml). Cell debris was removed by low speed centrifugation, and the supernatant stored at -70°C until required. In a typical assay C8166 T-lymphoblastoid CD4+ cells were incubated with 10xTCID50 HIV-1RF at 37°C for 90 minutes and then washed three times with phosphate buffered saline (PBS). Cell aliquots (2 x 10^5) were resuspended in 1.5ml growth medium in 6ml tubes, and active compounds in log dilutions [200µM to 0.2µM] were added immediately. 20mM stock solutions of each compound were made up in 70% alcohol. The compounds were stored as a powder and made up freshly in distilled water before each experiment or were stored as a […] stock solution in 70% alcohol. The final concentration of alcohol in the tissue culture medium was 1%. The cells were then incubated at 37°C in 5% CO2. […] The ELISA plates were read with a spectrophotometer. […] HIV-1 antigen in the supernatant was then measured using an ELISA. […] After 6 hours the cells were harvested and the ^14C incorporation measured. • (iii) Toxicity Assay. […] After 12, hours the cells were harvested and the ^14C incorporation measured. […] Toxicity is expressed as inhibition of uptake of ^14C protein hydrolysate. […]

Data set [10] in a line: in vitro. To be noted: CC50 (Toxicity).

As to `O=C(O)c1cc([N+](=O)[O-])c(Cl)c([N+](=O)[O-])c1Cl` [C1, 2,4-dichloro-3,5-dinitrobenzoic acid], the T/C% in [1] amounted to 243%. The “% Tumour Weight Inhibition” value in data set [2] (25 mg/kg per day ip, days 1,2,4,6,9) is 75%; in data set [2] (25 mg/kg per day sc, days 1,2,4,5,6,7,9) it was 63%; in data set [2] (50 mg/kg per day ip, days 1,4,6,9) it was 57%; in data set [2] (50 mg/kg per day sc, days 1,2,4,5,6,7,9), 76%; in data set [2] (75 mg/kg per day ip, days 1,4,6,9, listed as 2,4 BA), 79% and 88%; in data set [2] (75 mg/kg per day sc, days 1,4,5,7,9) it was 66%. The “% Tumour Weight Inhibition” value was 39% in data set [4] (50 mg/kg per day ip, days 1,2,3,4,5,6,7,8,9); 45% in data set [4] (75 mg/kg per day ip, days 1,4,5); 91% in data set [5] (50 mg/kg per day ip, days 1,2,4,5,8); 88% in [5] (75 mg/kg per day ip, days 1,2,5,8). The “activity on a split-dose schedule down to (dose)” value in data set [2] (by both ip and sc routes) is 25 mg/kg body weight. For the same compound, the “inhibition of tumour growth (in words)” value in data set [3] and in data set [5] (MAC16 murine colon adenocarcinoma) was “effectively inhibited growth” throughout. The “SI (Selectivity Index), Average” value amounted to 5 in data set [6], 3 in data set [7] and 4 in data set [8] (average line). In addition, the IC50 in data set [6] (Human immunodeficiency virus 1, C8166, read-out: IC50 (Antiviral), Average) worked out at 11.5 µM; in data set [7] (Human immunodeficiency virus 1, IIIB, read-out: IC50 (Antiviral), Average) it was 27 µM; in data set [8] (Human immunodeficiency virus 1, 96 h, four days, single determinations, read-out: IC50 (Antiviral)) it was 16 µM. Further, the “SI (Selectivity Index)” value in [7] was 2. The results for the half-maximal cytotoxic concentration (CC50) in data set [9] and in [10] were 63 µM and 30 µM, respectively.
